Numbered stars: 1 amine (or outer) side, 2 acyl side, 3 side chain; on linkers, the order of the positions; unused ones are H or OH. Square brackets hold non-standard residues; d marks the D form. Peptide text beside a SMILES is read from it. * marks the point of attachment. X3 = NC(=O)N[C@H](Cc1ccc2ccccc2c1)C(=O)*; dPhe(4-Cl) = N[C@H](Cc1ccc(Cl)cc1)C(=O)O; Desaminotyrosyl = O=C(CCc1ccc(O)cc1)*; d2Nal = N[C@H](Cc1ccc2ccccc2c1)C(=O)O; Lys(iPr) = CC(C)NCCCC[C@H](N)C(=O)O; NMeY = CN[C@@H](Cc1ccc(O)cc1)C(=O)O; Cyclopropanecarbonyl = O=C(C1CC1)*; dCit = NC(=O)NCCC[C@@H](N)C(=O)O; d3Pal = N[C@H](Cc1cccnc1)C(=O)O; Suc = O=C(CCC(=O)[*:2])[*:1]; Succinamoyl = NC(=O)CCC(=O)*; Nicotinoyl = O=C(c1cccnc1)*; X2 = O=C(CCc1ccc2ccccc2c1)*; Morpholide = C1CN(*)CCO1; PhAc = O=C(Cc1ccccc1)*; CO = O=C([*:1])[*:2]; Propionyl = CCC(=O)*; Butyryl = CCCC(=O)*; Glycolyl = O=C(CO)*; For = O=C*

This test deals with T1, LHRH (Rattus norvegicus, UniProt P30969).
T1 construct: evaluated in an in vitro test for LHRH antagonist potency (pA2); endogenous in cells; host or cells: pituitary cells (rat, from my own knowledge of the cited method)
T1 sequence (P30969 1-327): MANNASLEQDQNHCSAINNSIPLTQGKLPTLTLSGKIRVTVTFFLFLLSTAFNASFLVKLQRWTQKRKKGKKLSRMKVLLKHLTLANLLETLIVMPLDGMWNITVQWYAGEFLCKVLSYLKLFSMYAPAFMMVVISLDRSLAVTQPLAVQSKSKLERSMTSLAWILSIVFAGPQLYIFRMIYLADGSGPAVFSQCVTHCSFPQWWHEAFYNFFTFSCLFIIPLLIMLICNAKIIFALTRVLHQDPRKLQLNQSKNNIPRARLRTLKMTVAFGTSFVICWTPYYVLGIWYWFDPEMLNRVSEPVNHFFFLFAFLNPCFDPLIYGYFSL
The test is described as follows: in vitro test for LHRH antagonist potency (pA2). The class given is cell-based. As to conditions: negative logarithm of the antagonist concentration required to shift the response curve produced by the agonist leuprolide to two-fold higher concentration. As to the method: Representative compounds of the present invention were evaluated in an in vitro test for LHRH antagonist potency (pA2). The test employed the method detailed in F. Haviv, et al. J. Med. Chem., 32:2340-2344 (1989). The values of pA2 are the negative logarithms of the concentration of the particular antagonist test compound required to shift the response curve produced by the agonist leuprolide to two-fold higher concentration. (Leuprolide is the LHRH agonist having the structure 5-oxo-Pro^1 -His^2 -Trp^3 -Ser^4 -Tyr^5 -D-Leu^6 -Leu^7 -Arg^8 -Pro^9 -NHEt and is disclosed and claimed in U.S. Pat. No. 4,005,063.) Typically pA2 values of 9.5 or greater are indicative of good LHRH antagonist potency, with values of 10.0 or greater being preferred.
For the molecule `CC(C)C[C@H](NC(=O)[C@@H](CCCCNC(=O)c1cccnc1)NC(=O)[C@H](Cc1ccc(O)cc1)N(C)C(=O)[C@H](CO)NC(=O)[C@@H](Cc1cccnc1)NC(=O)[C@@H](Cc1ccc(Cl)cc1)NC(=O)[C@@H](Cc1ccc2ccccc2c1)NC(=O)CCc1ccc(O)cc1)C(=O)N[C@@H](CCCCNC(C)C)C(=O)N1CCC[C@H]1C(=O)N[C@H](C)C(N)=O` [Example 2m, N-3-(4-Hydroxyphenyl)propionyl-D2Nal-D4ClPhe-D3Pal-Ser-NMeTyr-DLys(N-epsilon-Nicotinyl)-Leu-Lys(N-epsilon -Isopropyl)-Pro-DAlaNH2] (Desaminotyrosyl-[d2Nal][dPhe(4-Cl)][d3Pal]S[NMeY][dK](Nicotinoyl)L[Lys(iPr)]P[dA]-NH2), the Kb is 0.02 nM.

On to `CC(C)C[C@H](NC(=O)[C@@H](CCCCNC(=O)c1cccnc1)NC(=O)[C@H](Cc1ccc(O)cc1)N(C)C(=O)[C@H](CO)NC(=O)[C@@H](Cc1cccnc1)NC(=O)[C@@H](Cc1ccc(Cl)cc1)NC(=O)[C@@H](Cc1ccc2ccccc2c1)NC(=O)CCc1ccc2ccccc2c1)C(=O)N[C@@H](CCCCNC(C)C)C(=O)N1CCC[C@H]1C(=O)N[C@H](C)C(N)=O` [Example 2o, N-3(2-Naphthyl)propionyl-D2Nal-D4ClPhe-D3Pal-Ser-NMeTyr-DLys(N-epsilon-Nicotinyl)-Leu-Lys(N-epsilon-Isopropyl) -Pro-DAlaNH2] (X2-[d2Nal][dPhe(4-Cl)][d3Pal]S[NMeY][dK](Nicotinoyl)L[Lys(iPr)]P[dA]-NH2), for which the Kb was 0.0794 nM.

Regarding `CC(C)C[C@H](NC(=O)[C@@H](CCCCNC(=O)c1cccnc1)NC(=O)[C@H](Cc1ccc(O)cc1)N(C)C(=O)[C@H](CO)NC(=O)[C@@H](Cc1cccnc1)NC(=O)[C@@H](Cc1ccc(Cl)cc1)NC(=O)[C@@H](Cc1ccc2ccccc2c1)NC(=O)CCC(=O)O)C(=O)N[C@@H](CCCCNC(C)C)C(=O)N1CCC[C@H]1C(=O)N[C@H](C)C(N)=O` [Example 3, N-Succinyl-D2Nal-D4ClPhe-D3Pal-Ser-NMeTyr-DLys(Nicotinyl)-Leu-Lys(N-epsilon-lsopropyl.)-Pro-DAlaNH2] (Suc-[d2Nal][dPhe(4-Cl)][d3Pal]S[NMeY][dK](Nicotinoyl)L[Lys(iPr)]P[dA]-NH2), the Kb was 0.0513 nM.

For `CC(C)C[C@H](NC(=O)[C@@H](CCCNC(N)=O)NC(=O)[C@H](Cc1ccc(O)cc1)N(C)C(=O)[C@H](CO)NC(=O)[C@@H](Cc1cccnc1)NC(=O)[C@@H](Cc1ccc(Cl)cc1)NC(=O)[C@@H](Cc1ccc2ccccc2c1)NC(=O)CO)C(=O)N[C@@H](CCCNC(=N)N)C(=O)N1CCC[C@H]1C(=O)N[C@H](C)C(N)=O` [Example 4, N-Glycolyl-D2Nal-D4ClPhe-D3Pal-Ser-NMeTyr-DCit-Leu-Arg-Pro-DAlaNH2] (Glycolyl-[d2Nal][dPhe(4-Cl)][d3Pal]S[NMeY][dCit]LRP[dA]-NH2), the Kb was 0.00661 nM.

On to `CC(C)C[C@H](NC(=O)[C@@H](CCCNC(N)=O)NC(=O)[C@H](Cc1ccc(O)cc1)N(C)C(=O)[C@H](CO)NC(=O)[C@@H](Cc1cccnc1)NC(=O)[C@@H](Cc1ccc(Cl)cc1)NC(=O)[C@@H](Cc1ccc2ccccc2c1)NC=O)C(=O)N[C@@H](CCCNC(=N)N)C(=O)N1CCC[C@H]1C(=O)N[C@H](C)C(N)=O` [Example 5a, N-Formyl-D2Nal-D4ClPhe-D3Pal-Ser-NMeTyr-DCit-Leu-Arg-Pro-DAlaNH2] (For-[d2Nal][dPhe(4-Cl)][d3Pal]S[NMeY][dCit]LRP[dA]-NH2), for which the Kb is 0.00447 nM.

Consider `CCC(=O)N[C@H](Cc1ccc2ccccc2c1)C(=O)N[C@H](Cc1ccc(Cl)cc1)C(=O)N[C@H](Cc1cccnc1)C(=O)N[C@@H](CO)C(=O)N(C)[C@@H](Cc1ccc(O)cc1)C(=O)N[C@H](CCCNC(N)=O)C(=O)N[C@@H](CC(C)C)C(=O)N[C@@H](CCCNC(=N)N)C(=O)N1CCC[C@H]1C(=O)N[C@H](C)C(N)=O` [Example 5b, N-Propionyl-D2Nal-D4ClPhe-D3Pal-Ser-NMeTyr-DCit-Leu-Arg-Pro-DAlaNH2] (Propionyl-[d2Nal][dPhe(4-Cl)][d3Pal]S[NMeY][dCit]LRP[dA]-NH2), for which the Kb is 0.00347 nM.

Regarding `CCCC(=O)N[C@H](Cc1ccc2ccccc2c1)C(=O)N[C@H](Cc1ccc(Cl)cc1)C(=O)N[C@H](Cc1cccnc1)C(=O)N[C@@H](CO)C(=O)N(C)[C@@H](Cc1ccc(O)cc1)C(=O)N[C@H](CCCNC(N)=O)C(=O)N[C@@H](CC(C)C)C(=O)N[C@@H](CCCNC(=N)N)C(=O)N1CCC[C@H]1C(=O)N[C@H](C)C(N)=O` [Example 5c, N-Butyryl-D2Nal-D4ClPhe-D3Pal-Ser-NMeTyr-DCit-Leu-Arg-Pro-DAlaNH2] (Butyryl-[d2Nal][dPhe(4-Cl)][d3Pal]S[NMeY][dCit]LRP[dA]-NH2), the antagonist dissociation constant (Kb) was 0.00562 nM.

On to `CC(C)C[C@H](NC(=O)[C@@H](CCCNC(N)=O)NC(=O)[C@H](Cc1ccc(O)cc1)N(C)C(=O)[C@H](CO)NC(=O)[C@@H](Cc1cccnc1)NC(=O)[C@@H](Cc1ccc(Cl)cc1)NC(=O)[C@@H](Cc1ccc2ccccc2c1)NC(=O)CCC(N)=O)C(=O)N[C@@H](CCCNC(=N)N)C(=O)N1CCC[C@H]1C(=O)N[C@H](C)C(N)=O` [Example 5d, N-Succinamyl-D2Nal-D4ClPhe-D3Pal-Ser-NMeTyr-DCit-Leu-Arg-Pro-DAlaNH2] (Succinamoyl-[d2Nal][dPhe(4-Cl)][d3Pal]S[NMeY][dCit]LRP[dA]-NH2), for which the Kb was 0.00646 nM.

With `CC(C)C[C@H](NC(=O)[C@@H](CCCNC(N)=O)NC(=O)[C@H](Cc1ccc(O)cc1)N(C)C(=O)[C@H](CO)NC(=O)[C@@H](Cc1cccnc1)NC(=O)[C@@H](Cc1ccc(Cl)cc1)NC(=O)[C@@H](Cc1ccc2ccccc2c1)NC(=O)C1CC1)C(=O)N[C@@H](CCCNC(=N)N)C(=O)N1CCC[C@H]1C(=O)N[C@H](C)C(N)=O` [Example 5e, N-Cyclopropylcarbonyl-D2Nal-D4ClPhe-D3PaI-Ser-NMeTyr-DCit-Leu-Arg-ProDAlaNH2] (Cyclopropanecarbonyl-[d2Nal][dPhe(4-Cl)][d3Pal]S[NMeY][dCit]LRP[dA]-NH2), the Kb is 0.0112 nM.

In the case of `CC(C)C[C@H](NC(=O)[C@@H](CCCNC(N)=O)NC(=O)[C@H](Cc1ccc(O)cc1)N(C)C(=O)[C@H](CO)NC(=O)[C@@H](Cc1cccnc1)NC(=O)[C@@H](Cc1ccc(Cl)cc1)NC(=O)[C@@H](Cc1ccc2ccccc2c1)NC(=O)Cc1ccccc1)C(=O)N[C@@H](CCCNC(=N)N)C(=O)N1CCC[C@H]1C(=O)N[C@H](C)C(N)=O` [Example 5f, NPhenylacetyl-D2Nal-D4ClPhe-D3Pal-Ser-NMeTyr-DCit-Leu-Arg-Pro-DAlaNH2] (PhAc-[d2Nal][dPhe(4-Cl)][d3Pal]S[NMeY][dCit]LRP[dA]-NH2), the Kb was 0.0158 nM.

Turning to `CC(C)C[C@H](NC(=O)[C@@H](CCCNC(N)=O)NC(=O)[C@H](Cc1ccc(O)cc1)N(C)C(=O)[C@H](CO)NC(=O)[C@@H](Cc1cccnc1)NC(=O)[C@@H](Cc1ccc(Cl)cc1)NC(=O)[C@@H](Cc1ccc2ccccc2c1)NC(=O)CCC(=O)O)C(=O)N[C@@H](CCCNC(=N)N)C(=O)N1CCC[C@H]1C(=O)N[C@H](C)C(N)=O` [Example 6, N-Succinyl-D2Nal-D4ClPhe-D3Pal-Ser-NMeTyr-DCit-Leu-Arg-Pro-DAlaNH2] (Suc-[d2Nal][dPhe(4-Cl)][d3Pal]S[NMeY][dCit]LRP[dA]-NH2), the Kb was 0.0398 nM.

As to `CC(C)C[C@H](NC(=O)[C@@H](CCCNC(N)=O)NC(=O)[C@H](Cc1ccc(O)cc1)N(C)C(=O)[C@H](CO)NC(=O)[C@@H](Cc1cccnc1)NC(=O)[C@@H](Cc1ccc(Cl)cc1)NC(=O)[C@@H](Cc1ccc2ccccc2c1)NC(N)=O)C(=O)N[C@@H](CCCNC(=N)N)C(=O)N1CCC[C@H]1C(=O)N[C@H](C)C(N)=O` [Example 7, N:(Aminocarbonyl)-D2Nal-D4ClPhe-D3 Pal-Ser- NMeTyr-DCit-Leu-Arg-ProDAIaNH2] (X3-[dPhe(4-Cl)][d3Pal]S[NMeY][dCit]LRP[dA]-NH2), the Kb is 0.00603 nM.

As to `CCNC(=O)N[C@H](Cc1ccc2ccccc2c1)C(=O)N[C@H](Cc1ccc(Cl)cc1)C(=O)N[C@H](Cc1cccnc1)C(=O)N[C@@H](CO)C(=O)N(C)[C@@H](Cc1ccc(O)cc1)C(=O)N[C@H](CCCNC(N)=O)C(=O)N[C@@H](CC(C)C)C(=O)N[C@@H](CCCNC(=N)N)C(=O)N1CCC[C@H]1C(=O)N[C@H](C)C(N)=O` [Example 8a, N-(Ethylaminocarbonyl)-D2Nal- D4ClPhe-D3Pal-Ser-NMeTyr-DCit-Leu-Arg-ProDAlaNH2] ({NHEt-CO}-[d2Nal][dPhe(4-Cl)][d3Pal]S[NMeY][dCit]LRP[dA]-NH2), the Kb is 0.0933 nM.

In the case of `CC(C)C[C@H](NC(=O)[C@@H](CCCNC(N)=O)NC(=O)[C@H](Cc1ccc(O)cc1)N(C)C(=O)[C@H](CO)NC(=O)[C@@H](Cc1cccnc1)NC(=O)[C@@H](Cc1ccc(Cl)cc1)NC(=O)[C@@H](Cc1ccc2ccccc2c1)NC(=O)N1CCOCC1)C(=O)N[C@@H](CCCNC(=N)N)C(=O)N1CCC[C@H]1C(=O)N[C@H](C)C(N)=O` [Example 8b, N-(Morpholinocarbonyl)-D2Nal-D4ClPhe-D 3Pal- Ser-NMeTyr-DCit-Leu-Arg-Pro-DAlaNH2] ({Morpholide-CO}-[d2Nal][dPhe(4-Cl)][d3Pal]S[NMeY][dCit]LRP[dA]-NH2), the Kb was 0.02 nM.

One may read the Kb as the equilibrium dissociation constant of an antagonist, usually derived from a functional assay.

For the origin of these results see patent US5413990A, “N-terminus modified analogs of LHRH” (Tap Pharmaceuticals Inc., priority 1993, dated 1995).
